Results taken from US20260364186A1, “Chemical Conjugates, Compositions, and Methods of Preparation and Use Thereof” (Transfection Holdings Limited, priority 2022, published 2026).
“Also recorded” adds a separate entry of the source.

Key:
[1] = test system: PBMCs / normal blood cells; test: FACS uptake of BODIPY FL conjugates in PBMCs (Example 3); assay type: cell-based, human; conditions: 135 nM
Description: (§1) FIG. 3A. Conjugate compounds coupled to BODIPY FL were tested for uptake using 135 nM each conjugate and 4.5 minute incubation with human lymphocytes, monocytes and neutrophils (from a healthy donor). Mean fluorescent intensities (MFI). 1,000 cells (lymphocytes), 500 cells (monocytes) and 250 cells (neutrophils) sorted by FACS. Bars represent mean±SD. Results represent a single experiment done in duplicate.
(§2) In addition to this, 25 mL of full blood was collected from a healthy donor in lithium-heparin vacutainer. Peripheral blood mononuclear cells (PBMCs) were collected after ficoll separation. PBMCs then were centrifuge at 400 g for 5 minutes. Supernatant was removed from the cells and resuspended with 20 mL of HBSS with a final concentration of 417,500 cells/mL. Then, 479 μL of cells suspension were poured into Eppendorf tube and 1000 μL of 200 nM drug solution in HBSS were added to afford 135 nM final drug concentration, incubated at 37 °C for 5 minutes. After incubation time, PBMCs were centrifuged at 400 g for 5 minutes. Supernatant was removed from the cells and pellet resuspended with 200 μL of HBSS. Suspension was transferred to 96 well-plate and run on FACS machine, approximately 1,000-250 cells analysed. The FACS results output represented the mean of the fluorescence intensities (in arbitrary units) measured for cells sorted in every sample.

[2] = test system: mouse embryonic fibroblasts MEF; test: FACS uptake of BODIPY FL conjugates (Example 4); assay type: cell-based; conditions: 200 nM, 5 min
Description: FIG. 4B: Conjugate compounds coupled to BODIPY FL were tested for uptake using 200 nM each conjugate and 5 minute incubation with mouse embryonic fibroblasts MEF. Mean fluorescent intensities (MFI). 1,000 cells were sorted by FACS.
Fibroblasts are ubiquitous mesenchymal cells that are thought to play important roles in wound repair and healing, and serve as reservoirs of multipotent progenitors capable of repopulating depleted cell compartments. Primary mouse embryonic fibroblast (MEF) cultures consist of highly heterogeneous populations of distinct cell types. Singhal, P. K., et al., 2016. MEF cells have a limited growth capacity and on prolonged passaging spontaneously immortalize at a low frequency. In contrast to transformation of primary MEF cells that requires the presence of two cooperating oncogenes, immortalised MEF cells can be transformed by a single oncogene (Ras) resulting in a loss of contact inhibition, anchorage-independent growth, and tumour formation in nude mice. Studies of MEF cells have played an important role in the elucidation of the molecular mechanisms underlying cellular immortalization, transformation, and tumorigenesis. Additionally, utilization of MEF cells disrupted for specific genes has provided a powerful tool to analyse the genetic regulation of these cellular processes. Sun and Taneja, 2007. […]

Jurkat cells = test: Time course of uptake by FACS (Example 6); assay type: cell-based, human; conditions: 200 nM
Description: FIG. 6: Time course of uptake for 124, 126, and 132 conjugate compounds. Tests were performed using 200 nM each conjugate and 5, 30 and 60 min incubation with Jurkat cells (immortalized T lymphocytes). Mean fluorescent intensities (MFI). 1,200 cells sorted by FACS. Bars represent mean±SD. Results represents a single experiment done in triplicate.
Materials and methods: Jurkat cells were diluted on RPMI media (supplemented with 10% FBS+1% penicillin-streptomycin) to 400 cells/μL. 5 μL of […] stock solutions in DMSO from 124, 126 and 132 were diluted with 1245 μL of RPMI media (supplemented with 10% FBS+1% penicillin-streptomycin) to give a 400 nM solution. 250 μL of cell suspensions were then added to each well in a 96 well plate and 250 μL of conjugate solutions (giving a 200 nM final concentration). 250 μL of media only was added to the DMSO control wells. Incubation was carried out for 5, 30 and 60 minutes at 37 °C in triplicate wells for each compound and time point.

[3] = test system: melanoma tumours (NZM11 cells); test: Whole body fluorescent cryo-imaging, tumour targeting (Example 13); assay type: in vivo, mouse; conditions: 0.7 mg/kg i.v., 1 hour post dosing
Description: (§3) Materials and methods: Compound 124 was supplied as a 10 mM stock solution in DMSO. NZM011 cells were grown in AMEM, 5% FBS, 5 μg/mL insulin, 5 μg/mL transferrin, 5 ng/mL sodium selenite at 37 °C with 5% O2, 90% N2 5% CO2. The study was performed in 6-week-old male NIH-III athymic mice (strain code 201). Work was carried out by Ichor Biosciences La Fayette NY, USA. Mice were injected on one flank with 5×10^6 NZM11 cells in a 50:50 matrigel:media suspension with a 22G needle. When tumours reach over 500 mm3 the mice were administered intravenously (tail vein) with a solution of compound 124 in phosphate buffered saline at a dose of 0.7 mg/kg. The mice were euthanized at 1 hour or 6 hours post dosing and frozen for cryoimaging. A control mouse received no tumour cells or compound 124 and was euthanized and frozen for cryoimaging at the same time as the treated mice.
(§4) Processed animals were cryoimaged imaged at BioInvision in Cleveland Ohio. Whole animal was sectioned at 40 microns and imaged using brightfield at fluorescent modes (503 nm). In-plane pixel size 10 microns. Mouse #1 with tumour on one flank at 500 mm3, treated with compound 124 (0.7 mg/kg) and euthanised 1 hour post treatment. Mouse #6 no tumour or compound 124 treatment euthanised on same day.

[4] = Whole body fluorescent cryo-imaging, tissue distribution (Example 13); assay type: in vivo, mouse; conditions: 0.7 mg/kg i.v., 1 hour post dosing
Description: as §3, §4

monocytes = test: FACS uptake of BODIPY FL conjugates in PBMCs (Example 3); assay type: cell-based, human; conditions: 135 nM
Description: as §1, §2

neutrophils = test: as above; assay type: cell-based, human; conditions: 135 nM
Description: as §1, §2

Compound	uptake [1]	uptake (fluorescent intensities) [2]	incubation time to saturation point (Jurkat cells) [min]	uptake, in words (Jurkat cells; 5 to 60 minutes)	fluorescent intensity compared to 126 and 132 (Jurkat cells; 5 minutes)	fluorescent intensity compared to 126 and 132 (Jurkat cells; 30 minutes)	times greater fluorescence than 126 and 132 (Jurkat cells; 60 minutes) [times]	124-specific fluorescence in tumour [3]	124-specific fluorescence in bladder [4]	124-specific fluorescence in kidneys [4]	fluorescence in any other tissues [4]	route of excretion [4]	targeting / fluorescence intensities (monocytes)	targeting / fluorescence intensities (neutrophils)
CC1=CC(C)=[N+]2C1=Cc1ccc(CCCn3cc(CCNC(=O)/C=C/NC(=O)[C@H](O)C(C)(C)CO)nn3)n1[B-]2(F)F [Compound 124]	no significant uptake	highest uptake; also recorded: showed uptake	≤ 30	increased between 5 and 30 minutes; also recorded: selective uptake	double	six times greater	6	124-specific fluorescence was also seen in the region of the implanted tumour and Specific 124-fluorescence was observed in the region of the tumour and specific green fluorescence from compound 124 was seen in the proximity of the tumour and specifically targeted and bound to tumour in vivo	strong 124-specific fluorescence; also recorded: Specific 124-fluorescence was observed; also recorded: strong fluorescence observed in the bladder; also recorded: Fluorescence specific for compound 124 was seen	124-specific fluorescence was observed in the kidney medulla and kidneys (mainly renal medulla)	No fluorescence	renal clearance; also recorded: renal route		
CC1=CC(C)=[N+]2C1=Cc1ccc(CCCn3cc(CCNC(=O)/C=C/NC(=O)[C@@H]4OC(C)(C)OCC4(C)C)nn3)n1[B-]2(F)F [Compound 125, (R,E)-N-((((3-[4,4-difluoro-5,7-dimethyl-4-bora-3a,4a-diaza-s-indacene-3-yl]propyl)-1H-1,2,3-triazol-4-yl)eth-ylamino)-3-oxoprop-1-enyl)-2,2,5,5-tetramethyl-1,3-dioxane-4-carboxamide]													showed targeting	showed targeting
